The values below come from patent publication US20230121689A1, “CEPHALOSPORIN ANTIBACTERIAL COMPOUND AND PHARMACEUTICAL APPLICATION THEREOF” (priority 2020, published 2023).

≈ marks a conversion by molar mass, not a printed value. Like-named read-outs stand apart in the source and are kept apart here.

Format in all cases: cell-based
In test [1] the test system is Carbapenem-resistant Pseudomonas aeruginosa (CRPA, Pseudomonas aeruginosa). In words: Test Example 2: antibacterial activity test (MIC). The protocol: (§1) 1. The test compounds were dissolved in sterile normal saline, vortexed for uniformly mixing, and diluted in a 2-fold dilution with the sterile normal saline (11 concentration points in total). The test concentration range was 32-0.031 μg/mL, and two duplicate wells were set for each concentration. Additional wells without drug dosing were set as growth controls. 2. 4 μL of the diluent was added to 196 μL of the bacterial suspension in a 96-well plate (the bacterial count in the bacterial suspension was 2-8×10^5 colony forming units/mL). 3.
(§2) The minimum inhibitory concentration (MIC) assay was performed with reference to the Clinical and Laboratory Standards Institute (CLSI) guidelines.

In test [2] the test system is Control Strain Pseudomonas aeruginosa ATCC 27853. Put plainly: Test Example 2: antibacterial activity test (MIC). The protocol:
as §1, §2

In test [3] the test system is Control strain Escherichia coli ATCC 25922. In words: Test Example 2: antibacterial activity test (MIC). The protocol: as §1, §2
Test [4] has as its system Carbapenem-resistant Enterobacteriaceae (CRE, Klebsiella pneumoniae). In words: Test Example 2: antibacterial activity test (MIC). The protocol: as §1, §2
Test [5] deals with Carbapenem-resistant Acinetobacter baumannii (CRAB, Acinetobacter baumannii). In words: Test Example 2: antibacterial activity test (MIC). The protocol:
as §1, §2

Test [6] has as its system Carbapenem-resistant Enterobacteriaceae (CRE). In words: Test Example 1: antibacterial activity test (MIC). The protocol: (§3) The test compounds were diluted in a gradient and used for an MIC assay on the test strains. The test compounds at an initial assay concentration of 32 μg/mL were diluted in a 2-fold gradient (11 concentration points in total), and two duplicate wells were set for each concentration. Additional wells without drug dosing were set as growth controls. The minimum inhibitory concentration (MIC) assay was performed with reference to the Clinical and Laboratory Standards Institute (CLSI) guidelines.
(§4) After the frozen strains were subcultured, a single colony was picked and re-suspended in normal saline or sterile water in a tube. The bacterial suspension was vortexed and adjusted to 0.5 McF using a spectrophotometer at the wavelength of 530 nm. The bacterial solution was taken by a pipette, added to a culture medium, diluted and mixed well, and seeded to a bacterial assay plate.
(§5) The 96-well plate was affixed with a disposable sealing film, shaken and mixed well, and visually observed using a plate reader. The minimum concentration of the compounds capable of inhibiting the growth of bacteria was defined as MIC as compared to the growth controls.

Test [7] deals with Carbapenem-resistant Pseudomonas aeruginosa (CRPA). Put plainly: Test Example 1: antibacterial activity test (MIC). The protocol: as §3, §4, §5
Test [8] relates to Carbapenem-resistant Acinetobacter baumannii (CRAB). Put plainly: Test Example 1: antibacterial activity test (MIC). The protocol: as §3, §4, §5

What is called MIC is the least concentration at which growth counts as inhibited. `C[C@H](CN(CCCNC(=O)c1ccc(O)c(O)c1Cl)C(=O)c1ccc(O)c(O)c1Cl)[N+]1(CC2=C(C(=O)O)N3C(=O)[C@@H](NC(=O)/C(=N\OC(C)(C)C(=O)O)c4csc(N)n4)[C@H]3SC2)CCCC1` [Compound 11]: the minimum inhibitory concentration (MIC) in test [1] (read-out: ID-CAMHB, MIC, ID-CAMHB, FDA-CDC AR-BANK #0439 (aac(6′)-Il, aadA1b, BCR1, IMP-18, OXA-50)) worked out at 0.5 µg/mL; in test [1] (read-out: ID-CAMHB, MIC, ID-CAMHB, FDA-CDC AR-BANK #0441 (KPC-2)), 8 µg/mL; in test [1] (read-out: ID-CAMHB, MIC, ID-CAMHB, FDA-CDC AR-BANK #0444 (aac(6′)-Il, dfrB5, OXA-4, tet(G), VIM-2)) it was 4 µg/mL; in test [1] (read-out: ID-CAMHB, MIC, ID-CAMHB, FDA-CDC AR-BANK #0457 (aadA6, VIM-2)), 0.25 µg/mL; in test [2] (ATCC27853, read-out: ID-CAMHB, MIC), 0.0625 µg/mL; in test [3] (ATCC25922, read-out: ID-CAMHB, MIC), 0.125 µg/mL. The minimum inhibitory concentration (MIC) stood at 1 µg/mL in test [4] (read-out: ID-CAMHB, MIC, ID-CAMHB, FDA-CDC AR-BANK #0361 (TEM-1; SHV-12; KPC-2)); 0.25 µg/mL in test [4] (read-out: ID-CAMHB, MIC, ID-CAMHB, FDA-CDC AR-BANK #0362 (TEM-1; SHV-11; KPC-2)); 0.5 µg/mL in test [4] (read-out: ID-CAMHB, MIC, ID-CAMHB, FDA-CDC AR-BANK #0363 (TEM-1; SHV-12; KPC-2)); 1 µg/mL in test [4] (read-out: ID-CAMHB, MIC, ID-CAMHB, FDA-CDC AR-BANK #0438 (aph(3′)-Ia, dfrA12, KPC-3, OmpK35, oqxA, oqxB, SHV-11)); 1 µg/mL in test [4] (read-out: ID-CAMHB, MIC, ID-CAMHB, FDA-CDC AR-BANK #0453 (KPC-3, OmpK35, oqxA, oqxB, SHV-11, TEM-1B)); 0.5 µg/mL in test [5] (read-out: ID-CAMHB, MIC, ID-CAMHB, FDA-CDC AR-BANK #0036 (strB, OXA-65, OXA-24, strA, sul2)). Also, the MIC in test [5] (read-out: ID-CAMHB, MIC, ID-CAMHB, FDA-CDC AR-BANK #0052 (OXA-58, OXA-100, sul2)) was determined as 0.125 µg/mL; in test [5] (read-out: ID-CAMHB, MIC, ID-CAMHB, FDA-CDC AR-BANK #0063 (OXA-23, OXA-65, OXA-24, sul2)), 4 µg/mL; in test [5] (read-out: ID-CAMHB, MIC, ID-CAMHB, FDA-CDC AR-BANK #0070 (OXA-58, OXA-100, sul2)) it was 0.25 µg/mL; in test [5] (read-out: ID-CAMHB, MIC, ID-CAMHB, FDA-CDC AR-BANK #0101 (strB, OXA-65, OXA-24, strA, sul2)), 1 µg/mL.

In the case of `C[C@@H](O)[C@H]1C(=O)N2C(C(=O)O)=C(S[C@@H]3CN[C@H](C(=O)N(C)C)C3)[C@H](C)[C@H]12` [Meropenem, reference compound], the MIC in test [1] (CAMHB, FDA-CDC AR-BANK #0439, read-out: CAMHB MIC) is > 32 µg/mL; in test [1] (CAMHB, FDA-CDC AR-BANK #0441, read-out: CAMHB MIC), > 32 µg/mL; in test [1] (CAMHB, FDA-CDC AR-BANK #0444, read-out: CAMHB MIC), > 32 µg/mL; in test [1] (CAMHB, FDA-CDC AR-BANK #0457, read-out: CAMHB MIC), > 32 µg/mL; in test [2] (ATCC27853, CAMHB, ATCC 27853, read-out: CAMHB MIC), 0.5 µg/mL (≈ 1.3 µM); in test [3] (ATCC25922, CAMHB, ATCC 25922, read-out: CAMHB MIC), ≤ 0.0312 µg/mL. In addition, the MIC in test [4] (read-out: CAMHB MIC, CAMHB, FDA-CDC AR-BANK #0361) was 16 µg/mL (≈ 41.7 µM); in test [4] (read-out: CAMHB MIC, CAMHB, FDA-CDC AR-BANK #0362), > 32 µg/mL; in test [4] (read-out: CAMHB MIC, CAMHB, FDA-CDC AR-BANK #0363), 32 µg/mL (≈ 83.4 µM); in test [4] (read-out: CAMHB MIC, CAMHB, FDA-CDC AR-BANK #0438), > 32 µg/mL; in test [4] (read-out: CAMHB MIC, CAMHB, FDA-CDC AR-BANK #0453) it was > 32 µg/mL; in test [5] (CAMHB, FDA-CDC AR-BANK #0036, read-out: CAMHB MIC), > 32 µg/mL. In addition, the minimal inhibitory concentration (MIC) in test [5] (CAMHB, FDA-CDC AR-BANK #0052, read-out: CAMHB MIC) was 16 µg/mL (≈ 41.7 µM); in test [5] (CAMHB, FDA-CDC AR-BANK #0063, read-out: CAMHB MIC), > 32 µg/mL; in test [5] (CAMHB, FDA-CDC AR-BANK #0070, read-out: CAMHB MIC), 8 µg/mL (≈ 20.9 µM); in test [5] (CAMHB, FDA-CDC AR-BANK #0101, read-out: CAMHB MIC), > 32 µg/mL; in test [6] (CRE strain No. 100109) it was > 32 µg/mL; in test [6] (CRE strain No. 100186) it was > 32 µg/mL. Moreover, the MIC was determined as 32 µg/mL (≈ 83.4 µM) in test [6] (CRE strain No. 110502); 32 µg/mL (≈ 83.4 µM) in test [6] (CRE strain No. 110525); 32 µg/mL (≈ 83.4 µM) in test [6] (CRE strain No. 311277); 32 µg/mL (≈ 83.4 µM) in test [7] (CRPA strain No. 100110); 24 µg/mL (≈ 62.6 µM) in test [7] (CRPA strain No. 110163); 16 µg/mL (≈ 41.7 µM) in test [7] (CRPA strain No. 110224). In addition, the MIC in test [7] (CRPA strain No. 110358) was 4 µg/mL (≈ 10.4 µM); in test [7] (CRPA strain No. 110390), 12 µg/mL (≈ 31.3 µM); in test [8] (CRAB strain No. 100085), 32 µg/mL (≈ 83.4 µM); in test [8] (CRAB strain No. 100333), > 32 µg/mL; in test [8] (CRAB strain No. 110440), 32 µg/mL (≈ 83.4 µM); in test [8] (CRAB strain No. 110477), > 32 µg/mL. The MIC in test [8] (CRAB strain No. 110517) amounted to 32 µg/mL (≈ 83.4 µM).
